From US9714247B2, “Multiple kinase pathway inhibitors” (Mannkind Corporation, priority 2012, dated 2017)
Where two headings read alike, the source gives them in different places.

Columns and labels:
Lyn [1] = target: T1, Lyn (Homo sapiens (Human), UniProt P07948); assay: biochemical
Ramos = assay: CellTiter-Glo proliferation/viability assay; assay type: cell-based, human; conditions: read-out: Ramos EC50
DoHH2 = assay: CellTiter-Glo proliferation/viability assay; assay type: cell-based, human; conditions: Homo sapiens, DOHH-2; 48 hrs; read-out: DoHH2 EC50
Src [2] = target: T2, Src (Homo sapiens (Human), UniProt P12931); assay: biochemical
T2 sequence (P12931 whole entry, looked up): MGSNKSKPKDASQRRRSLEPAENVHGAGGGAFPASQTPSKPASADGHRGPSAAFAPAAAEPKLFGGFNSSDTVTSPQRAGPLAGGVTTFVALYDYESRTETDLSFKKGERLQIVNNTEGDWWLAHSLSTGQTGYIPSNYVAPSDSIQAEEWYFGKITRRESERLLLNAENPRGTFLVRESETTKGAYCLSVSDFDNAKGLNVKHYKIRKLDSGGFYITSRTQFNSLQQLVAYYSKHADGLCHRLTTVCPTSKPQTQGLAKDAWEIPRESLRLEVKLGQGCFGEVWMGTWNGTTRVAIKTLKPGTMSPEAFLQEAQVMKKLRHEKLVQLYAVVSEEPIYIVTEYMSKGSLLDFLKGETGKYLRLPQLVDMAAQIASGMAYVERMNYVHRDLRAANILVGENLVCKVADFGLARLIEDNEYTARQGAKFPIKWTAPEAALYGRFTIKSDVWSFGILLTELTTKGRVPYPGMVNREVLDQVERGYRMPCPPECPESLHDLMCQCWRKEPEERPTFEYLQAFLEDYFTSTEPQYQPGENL

BTK = BTK (Homo sapiens (Human), UniProt Q06187)
BTK, sequence (Q06187 whole entry): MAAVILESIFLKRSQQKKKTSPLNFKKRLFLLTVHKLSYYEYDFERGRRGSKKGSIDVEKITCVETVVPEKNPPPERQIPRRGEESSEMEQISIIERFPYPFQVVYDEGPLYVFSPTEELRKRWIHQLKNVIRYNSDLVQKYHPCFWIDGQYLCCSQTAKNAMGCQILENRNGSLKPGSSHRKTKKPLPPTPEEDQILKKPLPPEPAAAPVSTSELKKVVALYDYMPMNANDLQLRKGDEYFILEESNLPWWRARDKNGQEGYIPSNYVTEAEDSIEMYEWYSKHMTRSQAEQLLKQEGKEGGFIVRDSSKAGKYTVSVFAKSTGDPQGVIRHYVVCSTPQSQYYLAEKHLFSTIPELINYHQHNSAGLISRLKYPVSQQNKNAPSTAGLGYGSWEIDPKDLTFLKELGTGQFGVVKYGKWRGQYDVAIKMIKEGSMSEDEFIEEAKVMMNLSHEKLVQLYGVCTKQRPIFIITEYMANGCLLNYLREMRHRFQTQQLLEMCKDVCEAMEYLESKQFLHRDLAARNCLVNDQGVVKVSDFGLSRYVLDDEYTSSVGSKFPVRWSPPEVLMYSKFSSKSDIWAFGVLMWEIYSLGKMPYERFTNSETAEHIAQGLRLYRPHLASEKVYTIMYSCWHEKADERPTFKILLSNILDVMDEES

Lyn [3] = target: T1, Lyn; conditions: read-out: Lyn IC50
Src [4] = target: T2, Src; conditions: read-out: Src IC50

T1 sequence (P07948 whole entry): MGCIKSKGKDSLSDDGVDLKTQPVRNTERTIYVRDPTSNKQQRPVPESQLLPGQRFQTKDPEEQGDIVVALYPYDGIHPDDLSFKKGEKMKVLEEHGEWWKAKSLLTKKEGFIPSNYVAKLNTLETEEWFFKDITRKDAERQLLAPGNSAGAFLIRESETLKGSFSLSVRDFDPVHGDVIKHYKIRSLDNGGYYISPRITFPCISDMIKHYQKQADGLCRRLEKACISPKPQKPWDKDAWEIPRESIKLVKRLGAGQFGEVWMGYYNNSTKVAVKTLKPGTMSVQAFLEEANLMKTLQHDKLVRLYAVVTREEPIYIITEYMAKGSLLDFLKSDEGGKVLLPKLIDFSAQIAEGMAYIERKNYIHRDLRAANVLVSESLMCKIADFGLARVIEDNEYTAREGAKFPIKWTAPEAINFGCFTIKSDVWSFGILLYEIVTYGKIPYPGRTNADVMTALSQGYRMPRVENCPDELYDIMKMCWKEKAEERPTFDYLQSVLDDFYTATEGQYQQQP

Row | Compound | IC50 (Lyn [1]; Lyn IC50) [nM] | EC50 (Ramos; Homo sapiens, Ramos, 48 h) [µM] | EC50 (DoHH2) [µM] | IC50 (Src [2]) [nM] | EC50 (Ramos; 48 hrs) [µM] | IC50 (BTK) [µM] | EC50 (Ramos; Homo sapiens, Ramos, 48 hrs) [µM] | IC50 (Lyn [3]) [µM] | IC50 (BTK; read-out: BTK IC50) [µM] | IC50 (Lyn [1]) [nM] | IC50 (Src [4]) [nM]
1 | O=c1c(-c2c(F)cccc2F)cc2cnc(Nc3ccc(F)cn3)cc2n1C1CCOC1 (single isomer, unassigned) [Compound 141, (S or R)-3-(2,6-difluorophenyl)-7-((5-fluoropyridin-2-yl)amino)-1-(tetrahydrofuran-3-yl)-1,6-naphthyridin-2(1H)-one] | 100 to 1000 | 1 to 10 | < 1 | < 100 |  |  |  |  |  |  | 
2 | CCN(CC)CCOc1ccc(Nc2cc3c(cn2)cc(-c2c(F)cccc2F)c(=O)n3C2CCOC2)nc1 (single isomer, unassigned) [Compound 143, (S or R)-7-((5-(2-(diethylamino)ethoxy)pyridin-2-yl)amino)-3-(2,6-difluorophenyl)-1-(tetrahydrofuran-3-yl)-1,6-naphthyridin-2(1H)-one] | < 100 |  | < 1 | < 100 | > 10 | < 0.1 |  |  |  |  | 
3 | CCN(CC)CCOc1ccc(Nc2cc3c(cn2)cc(-c2c(Cl)cccc2Cl)c(=O)n3C2CCOC2)nc1 (single isomer, unassigned) [Compound 145, (S or R)-3-(2,6-dichlorophenyl)-7-((5-(2-(diethylamino)ethoxy)pyridin-2-yl)amino)-1-(tetrahydrofuran-3-yl)-1,6-naphthyridin-2(1H)-one] | < 100 | 1 to 10 | < 1 | < 100 |  | < 0.1 |  |  |  |  | 
4 | CCN(CC)CCOc1cnc(Nc2cc3c(cn2)cc(-c2ccccc2)c(=O)n3CC)nc1 [Compound 3, 7-[5-(2-Diethylamino-ethoxy)-pyrimidin-2-ylamino]-1-ethyl-3-phenyl-1H-[1,6]naphthyridin-2-one] |  |  | 1 to 10 | 1000 to 5000 |  | 1 to 5 | > 10 | > 5 |  |  | 
5 | CCn1c(=O)c(-c2ccccc2)cc2cnc(Nc3ccc(C(=O)N4CCOCC4)cn3)cc21 [Compound 4, 1-Ethyl-7-[5-(morpholine-4-carbonyl)-pyridin-2-ylamino]-3-phenyl-1H-[1,6]naphthyridin-2-one] |  |  | 1 to 10 | 100 to 1000 |  |  | < 1 | < 0.1 | > 5 |  | 
6 | CC#Cc1cc2cnc(Nc3ccc(C)cn3)cc2n(CC)c1=O [Compound 21] |  |  | 1 to 10 | 100 to 1000 |  |  | 1 to 10 | > 5 | > 5 |  | 
7 | CCn1c(=O)c(C2CCCC2)cc2cnc(Nc3ccc(C)cn3)cc21 [Compound 31, 3-Cyclopentyl-1-ethyl-7-(5-methyl-pyridin-2-ylamino)-1H-[1,6]naphthayridin-2-one] |  | 1 to 10 | > 10 | 100 to 1000 |  |  |  | > 5 | > 5 |  | 
8 | CCn1c(=O)c(C#CCOC)cc2cnc(Nc3ccc(C)cn3)cc21 [Compound 32] |  | > 10 | > 10 | 1000 to 5000 |  |  |  | > 5 | > 5 |  | 
9 | CCn1c(=O)c(C(C)=O)cc2cnc(Nc3ccc(C)cn3)cc21 [Compound 33] |  |  | > 10 | 1000 to 5000 |  |  | > 10 | > 5 | > 5 |  | 
10 | CCn1c(=O)c(C2CCC2)cc2cnc(Nc3ccc(C)cn3)cc21 [Compound 37, 3-Cyclobutyl-1-ethyl-7-(5-methyl-pyridin-2-ylamino)-1H-[1,6]naphthyridin-2-one] |  |  | > 10 |  |  | 0.1 to 1 | > 10 |  |  | 1000 to 5000 | > 5000
11 | CCn1c(=O)c(C#CC(C)(C)C)cc2cnc(Nc3ccc(C)cn3)cc21 [Compound 39] |  | 1 to 10 | 1 to 10 | 100 to 1000 |  |  |  | > 5 | > 5 |  | 
12 | CCn1c(=O)c(-c2ccc(C)cc2)cc2cnc(Nc3ccc(C)cn3)cc21 [Compound 40, 1-ethyl-7-(5-methylpyridin-2-ylamino)-3-p-tolyl-1,6-naphthyridin-2(1H)-one] |  | > 10 | > 10 | 100 to 1000 |  |  |  | > 5 | > 5 |  | 
13 | CCn1c(=O)c(-c2cccc(C)c2)cc2cnc(Nc3ccc(C)cn3)cc21 [Compound 41, 1-ethyl-7-(5-methylpyridin-2-ylamino)-3-m-tolyl-1,6-naphthyridin-2(1H)-one] |  | > 10 | > 10 |  |  |  |  |  | > 5 | 1000 to 5000 | > 5000
14 | CCN(CC)CCOc1ccc(Nc2cc3c(cn2)cc(C(C)C)c(=O)n3CC)nc1 [Compound 50, 7-[5-(2-Diethylamino-ethoxy)-pyridin-2-ylamino]-1-ethyl-3-isopropyl-1H-[1,6]naphthyridin-2-one] |  |  | 1 to 10 | 100 to 1000 |  |  | > 10 |  |  | 100 to 1000 | 
15 | CCN(CC)CCOc1ccc(Nc2cc3c(cn2)cc(C(C)C)c(=O)n3CCOC)nc1 [Compound 57, 7-[5-(2-Diethylamino-ethoxy)-pyridin-2-ylamino]-3-isopropyl-1-(2-methoxy-ethyl)-1H-[1,6]naphthyridin-2-one] |  |  | 1 to 10 | 100 to 1000 |  | 1 to 5 | > 10 | > 5 |  |  | 
16 | CCN(CC)CCOc1ccc(Nc2cc3c(cn2)cc(C(C)C)c(=O)n3C)nc1 [Compound 59, 7-[5-(2-Diethylamino-ethoxy)-pyridin-2-ylamino]-3-isopropyl-1-methyl-1H-[1,6]naphthyridin-2-one] |  |  | 1 to 10 | 100 to 1000 |  |  | > 10 |  |  |  | 
17 | CCn1c(=O)c(-c2ccccc2)cc2cnc(Nc3ccnc(O)n3)cc21 [Compound 63, 1-Ethyl-7-(2-hydroxy-pyrimidin-4-ylamino)-3-phenyl-1H-[1,6]naphthyridin-2-one] |  |  | 1 to 10 |  |  | 1 to 5 | 1 to 10 |  |  | 100 to 1000 | < 100
18 | CCn1c(=O)c(-c2nccs2)cc2cnc(Nc3ccc(C)cn3)cc21 [Compound 68] |  |  | 1 to 10 |  |  |  | > 10 |  | > 5 | 1000 to 5000 | > 5000
19 | CCn1c(=O)c(-c2ccccc2Cl)cc2cnc(Nc3ccc(F)cn3)cc21 [Compound 71, 3-(2-chlorophenyl)-1-ethyl-7-(5-fluoropyridin-2-ylamino)-1,6-naphthyridin-2(1H)-one] |  |  | 1 to 10 |  |  | 1 to 5 | > 10 |  |  | 100 to 1000 | < 100
20 | CN1CCC(n2c(=O)c(-c3c(F)cccc3F)cc3cnc(Nc4ccc(F)cn4)cc32)C1 (centres unmarked) [Compound 85, 3-(2,6-difluorophenyl)-7-((5-fluoropyridin-2-yl)amino)-1-(1-methylpyrrolidin-3-yl)-1,6-naphthyridin-2(1H)-one] | 1000 to 5000 | > 10 | 1 to 10 | 1000 to 5000 |  |  |  |  |  |  | 
21 | CCN(CC)CCOc1ccc(Nc2cc3c(cn2)cc(-c2c(F)cc(Cl)cc2F)c(=O)n3CC)nc1 [Compound 98, 3-(4-chloro-2,6-difluorophenyl)-7-((5-(2-(diethylamino)ethoxy)pyridin-2-yl)amino)-1-ethyl-1,6-naphthyridin-2(1H)-one] |  |  | 1 to 10 |  |  |  | 1 to 10 |  | < 0.1 | 100 to 1000 | < 100
22 | CCN(CC)CCOc1ccc(Nc2cc3c(cn2)cc(-c2cccnc2)c(=O)n3CC)nc1 [Compound 103, 7-((5-(2-(diethylamino)ethoxy)pyridin-2-yl)amino)-1-ethyl-3-(pyridin-3-yl)-1,6-naphthyridin-2(1H)-one] |  |  | 1 to 10 |  |  |  | > 10 |  | > 5 | 100 to 1000 | < 100
23 | CCN(CC)CCOc1ccc(Nc2cc3c(cn2)cc(-c2cccc(SC)c2)c(=O)n3CC)nc1 [Compound 105, 7-((5-(2-(diethylamino)ethoxy)pyridin-2-yl)amino)-1-ethyl-3-(3-(methylthio)phenyl)-1,6-naphthyridin-2(1H)-one] |  |  | 1 to 10 |  |  | 1 to 5 | 1 to 10 |  |  | 100 to 1000 | < 100
24 | CCN(CC)CCOc1ccc(Nc2cc3c(cn2)cc(-c2ccccc2Cl)c(=O)n3CC)nc1 [Compound 106, 3-(2-chlorophenyl)-7-((5-(2-(diethylamino)-ethoxy)pyridin-2-yl)amino)-1-ethyl-1,6-naphthyridin-2(1H)-one] |  |  | < 1 |  |  |  | > 10 |  | < 0.1 | 100 to 1000 | > 5000
25 | COCCn1c(=O)c(-c2c(F)cccc2F)cc2cnc(Nc3ccc(F)cn3)cc21 [Compound 126, 3-(2,6-difluorophenyl)-7-((5-fluoropyridin-2-yl)amino)-1-(2-methoxyethyl)-1,6-naphthyridin-2(1H)-one] |  | > 10 | 1 to 10 | 1000 to 5000 |  | 0.1 to 1 |  | > 5 |  |  | 
26 | O=c1c(-c2c(F)cccc2F)cc2cnc(Nc3ccc(F)cn3)cc2n1[C@H]1CCNC1 [Compound 149, (S)-3-(2,6-difluorophenyl)-7-((5-fluoropyridin-2-yl)amino)-1-(pyrrolidin-3-yl)-1,6-naphthyridin-2(1H)-one] |  |  | 1 to 10 | 1000 to 5000 |  |  | > 10 | > 5 |  |  | 
27 | O=c1c(-c2c(F)cccc2F)cc2cnc(Nc3ccc(F)cn3)cc2n1[C@@H]1CCNC1 [Compound 151, (R)-3-(2,6-difluorophenyl)-7-((5-fluoropyridin-2-yl)amino)-1-(pyrrolidin-3-yl)-1,6-naphthyridin-2(1H)-one] |  |  | 1 to 10 | 100 to 1000 |  |  | > 10 |  |  | 100 to 1000 | 
